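Cells were grown in 96-well plates and exposed to each compound for 48 hours at five concentrations; endpoints were interpolated linearly between bracketing concentrations, or set to the highest concentration if not reached. At the GI50, growth is halved. At the TGI there is no net growth.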
Assays:
Experiment in all cases: NCI anticancer screen, dose series, 48 h
[1] = system: RXF 393 renal
[2] = system: UACC-62 melanoma
[3] = system: MDA-MB-231 breast
[4] = system: UACC-257 melanoma
[5] = system: HCC-2998 colon
[6] = system: HOP-92 NSCLC
[7] = system: LOX IMVI melanoma
[8] = system: CCRF-CEM leukemia
[9] = system: OVCAR-3 ovarian
[10] = system: MCF7 breast
[11] = system: OVCAR-5 ovarian
[12] = system: KM12 colon
[13] = system: NCI-H226 lung
[14] = system: SNB-75 CNS
[15] = system: A549 NSCLC
[16] = system: BT-549 breast
[17] = system: NCI-H23 lung
[18] = system: SF-295 CNS
[19] = system: SN12C renal
[20] = system: U251 CNS
[21] = system: SR leukemia
[22] = system: RPMI-8226 leukemia
[23] = system: IGROV1 ovarian
[24] = system: OVCAR-4 ovarian
[25] = system: PC-3 prostate
[26] = system: ACHN renal
[27] = system: UO-31 renal
[28] = system: HT29 colon
[29] = system: HCT-116 colon
[30] = system: OVCAR-8 ovarian
[31] = system: MOLT-4 leukemia
[32] = system: SF-539 CNS
[33] = system: SK-OV-3 ovarian
[34] = system: SK-MEL-2 melanoma
[35] = system: EKVX NSCLC
[36] = system: 786-0 renal
[37] = system: SK-MEL-28 melanoma
[38] = system: DU-145 prostate
[39] = system: T-47D breast
[40] = system: MALME-3M melanoma
[41] = system: SW-620 colon
[42] = system: SF-268 CNS
[43] = system: MDA-MB-435
[44] = system: NCI-H522 lung
[45] = system: HCT-15 colon
[46] = system: A498 renal
[47] = system: M14 melanoma
[48] = system: SK-MEL-5 melanoma
[49] = system: HS 578T breast
[50] = system: SNB-19 CNS
[51] = system: NCI-H460 lung
[52] = system: NCI/ADR-RES ovarian
[53] = system: K-562 leukemia
[54] = system: HL-60(TB) leukemia
[55] = system: COLO 205 colon
[56] = system: TK-10 renal

With COc1cc(C2CC(c3ccc(Nc4nc(NCCO)nc(NCCO)n4)cc3)=NN2c2cc(Cl)cc(Cl)c2)cc(OC)c1OC (configuration not stated) the GI50 [1] was 568 nM, the TGI [1] was 2340 nM and the GI50 [2] was 1580 nM. The TGI [2] was 3040 nM, the GI50 [3] was 1450 nM and the TGI [3] was 3440 nM. For the same compound, the GI50 [4] was 1860 nM, the TGI [4] was 3870 nM and the GI50 [5] was 2140 nM. It also gave a TGI [5] of 4840 nM, a GI50 [6] of 1460 nM and a TGI [6] of 6730 nM. The GI50 [7] was 1600 nM, the TGI [7] was 3100 nM and the GI50 [8] was 2530 nM. The TGI [8] was 10700 nM, the GI50 [9] was 1620 nM and the TGI [9] was 3130 nM. It also gave a GI50 [10] of 1260 nM, a TGI [10] of 2940 nM and a GI50 [11] of 2150 nM. The TGI [11] was 7560 nM, the GI50 [12] was 1530 nM and the TGI [12] was 3210 nM. The GI50 [13] was 3850 nM, the TGI [13] was 16800 nM and the GI50 [14] was 1050 nM. For the same compound, the TGI [14] was 3050 nM, the GI50 [15] was 1380 nM and the TGI [15] was 3220 nM. For the same compound, the GI50 [16] was 1670 nM, the TGI [16] was 4540 nM and the GI50 [17] was 2020 nM. The TGI [17] was 4970 nM, the GI50 [18] was 1160 nM and the TGI [18] was 2870 nM. For the same compound, the GI50 [19] was 1750 nM, the TGI [19] was 3820 nM and the GI50 [20] was 1250 nM. For the same compound, the TGI [20] was 2810 nM, the GI50 [21] was 1290 nM and the TGI [21] was 4110 nM. For the same compound, the GI50 [22] was 1150 nM, the TGI [22] was 6280 nM and the GI50 [23] was 2020 nM. The TGI [23] was 4800 nM, the GI50 [24] was 1630 nM and the TGI [24] was 3660 nM. The GI50 [25] was 1040 nM, the TGI [25] was 3610 nM and the GI50 [26] was 2580 nM. For the same compound, the TGI [26] was 13100 nM, the GI50 [27] was 2080 nM and the TGI [27] was 8090 nM. It also gave a GI50 [28] of 1520 nM, a TGI [28] of 3250 nM and a GI50 [29] of 1280 nM. The TGI [29] was 2670 nM, the GI50 [30] was 2010 nM and the TGI [30] was 5860 nM. It also gave a GI50 [31] of 1000 nM, a TGI [31] of 4120 nM and a GI50 [32] of 1200 nM. The TGI [32] was 2570 nM, the GI50 [33] was 11100 nM and the TGI [33] was 23100 nM. It also gave a GI50 [34] of 15500 nM, a TGI [34] of 28900 nM and a GI50 [35] of 2030 nM. The TGI [35] was 6170 nM, the GI50 [36] was 1290 nM and the TGI [36] was 2590 nM. It also gave a GI50 [37] of 1530 nM, a TGI [37] of 3140 nM and a GI50 [38] of 1840 nM. The TGI [38] was 4110 nM, the GI50 [39] was 1180 nM and the TGI [39] was 12100 nM. It also gave a GI50 [40] of 1960 nM, a TGI [40] of 3840 nM and a GI50 [41] of 1800 nM. It also gave a TGI [41] of 3790 nM, a GI50 [42] of 1520 nM and a TGI [42] of 4090 nM. It also gave a GI50 [43] of 1550 nM, a TGI [43] of 3240 nM and a GI50 [44] of 2250 nM. For the same compound, the TGI [44] was 9210 nM, the GI50 [45] was 1500 nM and the TGI [45] was 3130 nM. For the same compound, the GI50 [46] was 16600 nM, the TGI [46] was 30200 nM and the GI50 [47] was 1580 nM. For the same compound, the TGI [47] was 3240 nM, the GI50 [48] was 1700 nM and the TGI [48] was 3340 nM. The GI50 [49] was 644 nM, the TGI [49] was 3340 nM and the GI50 [50] was 1720 nM. It also gave a TGI [50] of 4120 nM, a GI50 [51] of 1770 nM and a TGI [51] of 3800 nM. It also gave a GI50 [52] of 3370 nM, a TGI [52] of 12800 nM and a GI50 [53] of 1470 nM. The TGI [53] was 3580 nM, the GI50 [54] was 1500 nM and the TGI [54] was 3430 nM. The GI50 [55] was 2700 nM, the TGI [55] was 9290 nM and the GI50 [56] was 2010 nM. It also gave a TGI [56] of 4450 nM.

From PubChem BioAssay (NCI)
